Results: ChEMBL document CHEMBL5390242, “Design, Synthesis, and Antitumor Efficacy of Substituted 2-Amino[1,2,4]triazolopyrimidines and Related Heterocycles as Dual Inhibitors for Microtubule Polymerization and Janus Kinase 2” (J Med Chem, 2023)
Active and inactive are the calls of the source. The rule behind the calls is not given here.

Columns and labels:
HeLa = experiment: Antiproliferative activity against human HeLa cells assessed as cell growth inhibition incubated for 48 hrs by MTT assay; type: functional, cell-based
COLO 205 = experiment: Cytotoxicity against human COLO 205 cells assessed as cell growth inhibition incubated for 48 hrs by MTT assay; type: functional, cell-based; conditions: COLO 205, 48 h
A549 [1] = experiment: Induction of mitochondrial membrane potential loss in human A549 cells by measuring red fluorescence at 500 nM incubated for 16 hrs by JC-1 staining based flow cytometry analysis (reference value: 99.3 %); type: functional
PC-3 = experiment: Antiproliferative activity against human PC-3 cells assessed as cell growth inhibition incubated for 48 hrs by MTT assay; type: functional, cell-based; conditions: PC-3, 48 h
[2] = Antiproliferative activity against Chinese hamster CHO cells assessed as cell growth inhibition incubated for 48 hrs by MTT assay; type: toxicity, cell-based, Cricetulus griseus
[3] = Antiproliferative activity against Chinese hamster CHO-K1 cells assessed as cell growth inhibition incubated for 48 hrs by MTT assay; type: toxicity, cell-based, Cricetulus griseus
HT-29 = experiment: Antiproliferative activity against human HT-29 cells assessed as cell growth inhibition incubated for 48 hrs by MTT assay; type: functional, cell-based; conditions: HT-29, 48 h
A549 [4] = experiment: Induction of apoptosis in human A549 cells assessed as viable cells at 500 nM incubated for 24 hrs by Annexin V-FITC/PI staining based flow cytometry (reference value: 93 %); type: functional; conditions: read-out: Activity
A549 [5] = experiment: Induction of apoptosis in human A549 cells assessed as late apoptotic cells at 500 nM incubated for 24 hrs by Annexin V-FITC/PI staining based flow cytometry (reference value: 1.72 %); type: functional
A549 [6] = experiment: Induction of apoptosis in human A549 cells assessed as necrotic cells at 500 nM incubated for 24 hrs by Annexin V-FITC/PI staining based flow cytometry (reference value: 0.67 %); type: functional
KP-4 = experiment: Antiproliferative activity against human KP-4 cells assessed as cell growth inhibition incubated for 48 hrs by MTT assay; type: functional, cell-based; conditions: KP-4, 48 h
[7] = biological target: Tyrosine-protein kinase JAK1 (Homo sapiens, UniProt P23458); experiment: Inhibition of JAK1 (unknown origin) using Poly-(Glu,Tyr 4:1) peptide as substrate in presence of ATP by ADP-Glo reagent based assay
Sequence of Tyrosine-protein kinase JAK1 (P23458 whole entry): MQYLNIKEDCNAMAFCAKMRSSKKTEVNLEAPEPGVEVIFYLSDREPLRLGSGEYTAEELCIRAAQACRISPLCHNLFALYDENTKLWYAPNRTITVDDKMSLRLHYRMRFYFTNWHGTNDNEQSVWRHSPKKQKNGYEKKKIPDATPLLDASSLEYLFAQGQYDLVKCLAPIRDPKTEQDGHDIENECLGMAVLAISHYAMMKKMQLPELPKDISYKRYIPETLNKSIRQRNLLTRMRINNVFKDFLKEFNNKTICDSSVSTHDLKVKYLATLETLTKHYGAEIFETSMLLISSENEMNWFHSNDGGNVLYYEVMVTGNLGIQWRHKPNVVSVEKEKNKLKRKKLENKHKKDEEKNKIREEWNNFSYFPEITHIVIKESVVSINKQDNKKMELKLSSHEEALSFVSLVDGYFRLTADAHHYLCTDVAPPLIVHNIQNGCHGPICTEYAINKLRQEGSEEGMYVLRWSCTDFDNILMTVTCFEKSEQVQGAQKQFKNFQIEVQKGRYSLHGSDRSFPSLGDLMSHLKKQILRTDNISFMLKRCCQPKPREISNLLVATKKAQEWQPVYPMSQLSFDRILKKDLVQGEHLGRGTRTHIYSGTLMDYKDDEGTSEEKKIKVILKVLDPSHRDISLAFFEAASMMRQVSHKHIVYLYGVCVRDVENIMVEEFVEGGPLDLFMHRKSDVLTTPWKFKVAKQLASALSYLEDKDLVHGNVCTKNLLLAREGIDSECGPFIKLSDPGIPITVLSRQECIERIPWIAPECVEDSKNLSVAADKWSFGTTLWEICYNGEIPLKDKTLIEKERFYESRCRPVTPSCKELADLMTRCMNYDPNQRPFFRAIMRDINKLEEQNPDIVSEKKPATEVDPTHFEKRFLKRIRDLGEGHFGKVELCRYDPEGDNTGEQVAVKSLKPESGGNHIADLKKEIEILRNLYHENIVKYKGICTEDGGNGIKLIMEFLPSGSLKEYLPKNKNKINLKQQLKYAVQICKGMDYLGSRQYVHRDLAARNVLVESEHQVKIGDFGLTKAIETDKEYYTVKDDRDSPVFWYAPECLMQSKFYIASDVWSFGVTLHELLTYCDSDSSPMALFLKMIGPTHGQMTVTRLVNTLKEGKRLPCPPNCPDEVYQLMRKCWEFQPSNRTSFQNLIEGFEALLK

[8] = Metabolic stability in mouse liver microsomes assessed as half life incubated for 10 mins in presence of NADPH by LC-MS/MS analysis; type: ADME, Microsome
A2780 = experiment: Antiproliferative activity against human A2780 cells assessed as cell growth inhibition incubated for 48 hrs by MTT assay; type: functional, cell-based; conditions: A2780, 48 h
[9] = Cytotoxicity against human HaCaT cells assessed as cell growth inhibition incubated for 48 hrs by MTT assay; type: toxicity, cell-based
[10] = biological target: T1, Tyrosine-protein kinase JAK2 (Homo sapiens, UniProt O60674); experiment: Inhibition of JAK2 (unknown origin) using Poly-(Glu,Tyr 4:1) peptide as substrate in presence of ATP by ADP-Glo reagent based assay
T1 sequence (O60674 whole entry): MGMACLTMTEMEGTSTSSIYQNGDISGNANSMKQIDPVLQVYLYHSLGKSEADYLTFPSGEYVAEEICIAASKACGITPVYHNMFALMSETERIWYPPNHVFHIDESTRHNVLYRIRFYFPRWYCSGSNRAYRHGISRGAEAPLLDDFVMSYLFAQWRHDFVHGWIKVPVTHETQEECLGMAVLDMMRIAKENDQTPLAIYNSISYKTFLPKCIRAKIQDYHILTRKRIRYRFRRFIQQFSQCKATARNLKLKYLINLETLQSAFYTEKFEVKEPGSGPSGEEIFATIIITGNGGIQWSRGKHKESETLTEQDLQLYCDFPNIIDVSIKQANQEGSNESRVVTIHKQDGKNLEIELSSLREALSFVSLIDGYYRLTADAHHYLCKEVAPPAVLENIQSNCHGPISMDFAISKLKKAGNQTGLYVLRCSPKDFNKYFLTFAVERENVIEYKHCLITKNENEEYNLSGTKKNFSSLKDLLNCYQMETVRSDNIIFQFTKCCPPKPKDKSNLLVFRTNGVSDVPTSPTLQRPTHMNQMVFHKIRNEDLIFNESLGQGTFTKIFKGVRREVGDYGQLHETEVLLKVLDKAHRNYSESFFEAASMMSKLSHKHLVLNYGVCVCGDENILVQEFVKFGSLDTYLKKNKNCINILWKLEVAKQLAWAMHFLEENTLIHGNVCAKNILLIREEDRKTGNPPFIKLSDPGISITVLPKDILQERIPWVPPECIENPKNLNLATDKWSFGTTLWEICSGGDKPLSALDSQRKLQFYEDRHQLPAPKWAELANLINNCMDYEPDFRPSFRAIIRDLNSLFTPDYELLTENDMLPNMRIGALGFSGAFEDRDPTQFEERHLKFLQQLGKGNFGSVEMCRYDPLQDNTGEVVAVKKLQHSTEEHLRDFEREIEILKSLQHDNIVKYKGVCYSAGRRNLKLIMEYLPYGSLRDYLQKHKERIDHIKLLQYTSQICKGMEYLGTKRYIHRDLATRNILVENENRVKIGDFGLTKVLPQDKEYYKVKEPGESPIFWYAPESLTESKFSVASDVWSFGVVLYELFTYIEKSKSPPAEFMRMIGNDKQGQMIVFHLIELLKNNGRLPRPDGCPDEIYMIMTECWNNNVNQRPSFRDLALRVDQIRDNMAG

[11] = Antiproliferative activity against human HCT-8/VCR cells assessed as cell growth inhibition incubated for 48 hrs by MTT assay; type: functional, cell-based
[12] = Antiproliferative activity against human A549/DDP cells assessed as cell growth inhibition incubated for 48 hrs by MTT assay; type: functional, cell-based
BXPC-3 = experiment: Antiproliferative activity against human BXPC-3 cells assessed as cell growth inhibition incubated for 48 hrs by MTT assay; type: functional, cell-based; conditions: BXPC-3, 48 h
[13] = Cytotoxicity against human ARPE-19 cells assessed as cell growth inhibition incubated for 48 hrs by MTT assay; type: toxicity, cell-based
MCF7 = experiment: cells; conditions: Homo sapiens, MCF7, 48 h
Description: Antiproliferative activity against human MCF7 cells assessed as cell growth inhibition incubated for 48 hrs by MTT assay

HCT-8 = experiment: Antiproliferative activity against human HCT-8 cells assessed as cell growth inhibition incubated for 48 hrs by MTT assay; type: functional, cell-based; conditions: HCT-8, 48 h
HepG2 = experiment: Cytotoxicity against human HepG2 cells assessed as cell growth inhibition incubated for 48 hrs by MTT assay; type: functional, cell-based; conditions: HepG2, 48 h
CWR22R = experiment: Cytotoxicity against human 22Rv1 cells assessed as cell growth inhibition incubated for 48 hrs by MTT assay; type: functional, cell-based; conditions: 22Rv1, 48 h
A2780/Taxol = experiment: Antiproliferative activity against human A2780T cells assessed as cell growth inhibition incubated for 48 hrs by MTT assay; type: functional, cell-based
A549 [14] = experiment: Antiproliferative activity against human A549 cells assessed as cell growth inhibition incubated for 48 hrs by MTT assay; type: functional, cell-based; conditions: A549, 48 h
[15] = Cytotoxicity against human L02 cells assessed as cell growth inhibition incubated for 48 hrs by MTT assay; type: toxicity, cell-based
A549 [16] = experiment: Induction of apoptosis in human A549 cells assessed as early apoptotic cells at 500 nM incubated for 24 hrs by Annexin V-FITC/PI staining based flow cytometry (reference value: 4.61 %); type: functional
NCI/ADR-RES = experiment: cells; conditions: Homo sapiens, 48 h
Description: Antiproliferative activity against human MCF7ADR cells assessed as cell growth inhibition incubated for 48 hrs by MTT assay

[17] = biological target: T1, Tyrosine-protein kinase JAK2; experiment: Inhibition of JAK2 (unknown origin) using Poly-(Glu,Tyr 4:1) peptide as substrate at 1 uM in presence of ATP by ADP-Glo reagent based assay relative to control
A549 [18] = experiment: Induction of mitochondrial membrane potential loss in human A549 cells by measuring green fluorescence at 500 nM incubated for 16 hrs by JC-1 staining based flow cytometry analysis (reference value: 0.7 %); type: functional
A549 [19] = experiment: Induction of apoptosis in human A549 cells assessed as viable cells at 50 nM incubated for 24 hrs by Annexin V-FITC/PI staining based flow cytometry (reference value: 93 %); type: functional; conditions: read-out: Activity
A549 [20] = experiment: Induction of mitochondrial membrane potential loss in human A549 cells by measuring red fluorescence at 50 nM incubated for 16 hrs by JC-1 staining based flow cytometry analysis (reference value: 99.3 %); type: functional
A549 [21] = experiment: Induction of apoptosis in human A549 cells assessed as necrotic cells at 50 nM incubated for 24 hrs by Annexin V-FITC/PI staining based flow cytometry (reference value: 0.67 %); type: functional
A549 [22] = experiment: Induction of apoptosis in human A549 cells assessed as early apoptotic cells at 50 nM incubated for 24 hrs by Annexin V-FITC/PI staining based flow cytometry (reference value: 4.61 %); type: functional
A549 [23] = experiment: Induction of mitochondrial membrane potential loss in human A549 cells by measuring green fluorescence at 50 nM incubated for 16 hrs by JC-1 staining based flow cytometry analysis (reference value: 0.7 %); type: functional
A549 [24] = experiment: Induction of apoptosis in human A549 cells assessed as late apoptotic cells at 50 nM incubated for 24 hrs by Annexin V-FITC/PI staining based flow cytometry (reference value: 1.72 %); type: functional
A549 [25] = experiment: Antitumor activity against human A549 cells xenografted in Balb/c mouse assessed as increase in tumor necrotic cells at 50 mg/kg,ip administration measured after 31 days by Hematoxylin-eosin staining based microscopy; type: functional, organism-based; conditions: time 31.0 day
[26] = Tmax in CD-1 mouse at 13 mg/kg,ip measured upto 24 hrs by HPLC-MS/MS analysis; type: ADME, organism-based; conditions: in vivo
[27] = Cmax in CD-1 mouse at 13 mg/kg,ip measured upto 24 hrs by HPLC-MS/MS analysis; type: ADME, organism-based; design: time < 24 hrs, dose 13 mg/kg, route ip; conditions: in vivo
[28] = Toxicity in Balb/c mouse xenografted with human A549 cells assessed as change in body weight at 50 mg/kg,ip administration measured after 31 days; type: organism-based; conditions: in vivo, 744 h, time 31 day
[29] = AUC (0 to t) in CD-1 mouse at 13 mg/kg,ip measured upto 24 hrs by HPLC-MS/MS analysis; type: ADME, organism-based; design: time < 24 hrs, dose 13 mg/kg, route ip; conditions: in vivo
[30] = Acute toxicity in C57BL/6 mouse assessed as maximum tolerated dose administered intravenously for 5 consecutive days; conditions: in vivo, route iv
[31] = Half life in CD-1 mouse at 13 mg/kg,ip measured upto 24 hrs by HPLC-MS/MS analysis; type: ADME, organism-based; conditions: in vivo
[32] = MRT (0 to t) in CD-1 mouse at 13 mg/kg,ip measured upto 24 hrs by HPLC-MS/MS analysis; type: ADME, organism-based; conditions: in vivo
[33] = MRT (0 to infinity) in CD-1 mouse at 13 mg/kg,ip measured upto 24 hrs by HPLC-MS/MS analysis; type: ADME, organism-based; conditions: in vivo
[34] = AUC (0 to infinity) in CD-1 mouse at 13 mg/kg,ip measured upto 24 hrs by HPLC-MS/MS analysis; type: ADME, organism-based; design: time < 24 hrs, dose 13 mg/kg, route ip; conditions: in vivo
A549 [35] = experiment: Antitumor activity against human A549 cells xenografted in Balb/c mouse assessed as tumor size at 50 mg/kg,ip administration measured after 31 days; type: functional; conditions: time 31 day
A549 [36] = experiment: Antitumor activity against human A549 cells xenografted in Balb/c mouse assessed as reduction in tumor weight at 50 mg/kg,ip administration measured after 31 days; type: functional; design: scale not given: the % may be the effect or the level left; conditions: time 31 day

Row | Compound | IC50 (HeLa) [nM] | IC50 (COLO 205) [nM] | IC50 (PC-3) [µM] | IC50 at 48 h [2] [nM] | IC50 at 48 h [3] [µM] | IC50 (HT-29) [nM] | IC50 (KP-4) [nM] | IC50 at 48 h [9] [nM] | IC50 (BXPC-3) [nM] | IC50 at 48 h [13] [nM] | IC50 (MCF7) [nM] | IC50 (HepG2) [nM] | IC50 (CWR22R) [nM] | IC50 (A549 [14]) [nM] | IC50 at 48 h [15] [nM] | inhibition [17] [%] | other results
1 | CN1CCN(c2cccc(Nc3nc4c(-c5ccc(S(C)(=O)=O)cc5)cccn4n3)c2)CC1 | 1260 | 1550 | 15.1 | 172 | 0.216 | 961 | 372 | 2830 | 730 | 4930 | 1230 | 2040 | 5790 | 358 | 388 | 99 | Activity (A549 [1]): 96.5%; viability at 0.5 µM (A549 [4]): 65.7%; Activity (A549 [5]): 16.6%; Activity (A549 [6]): 2.8%; IC50 [7]: 12 nM; half-life [8]: 13.1 min; IC50 (A2780): 289 nM; IC50 [10]: 6 nM; IC50 [11]: 5.78 µM; IC50 [12]: 1530 nM; IC50 (HCT-8): 1140 nM; IC50 (A2780/Taxol): 394 nM; Activity (A549 [16]): 14.9%; IC50 (NCI/ADR-RES): 3.53 µM; Activity (A549 [18]): 3.5%
2 | COc1cc2c(c(OC)c1OC)-c1ccc(OC)c(=O)cc1[C@@H](NC(C)=O)CC2 [COLCHICINE] |  | 12.8 | 0.079 | 697 | 9.2 | 31 |  | 9.3 | 41 | 21.8 | 46 | 75 | 18 | 64 | 269 | 5.7 | viability at 0.05 µM (A549 [19]): 57%; Activity (A549 [20]): 93.9%; Activity (A549 [21]): 3.6%; Activity (A549 [22]): 15.3%; Activity (A549 [23]): 0.1%; Activity (A549 [24]): 24.1%
3 | COc1cc(-c2nccc3nc(Nc4cccc5c4ccn5P(=O)([O-])[O-])nn23)cc(OC)c1OC.[Na+].[Na+] | 11 |  |  |  |  |  | 42 |  | 9 |  | 48 |  |  | 12 |  |  | Activity (A549 [25]): Active; Tmax [26]: 6 min; Cmax [27]: 334 ng/mL; Activity [28]: Non-Toxic; AUC(0-t) at 24 h [29]: 850 ng·h/mL; MTD at 5 days [30]: 100 mg/kg; half-life [31]: 108 min; MRT last at 24 h [32]: 1.8 h; MRT inf [33]: 2.4 h; AUC(0-inf) [34]: 908 ng·h/mL; Activity (A549 [35]): 204.6 mm3; Activity (A549 [36]): 91%
